Measurements as given in ChEMBL document CHEMBL1158736, “Cremastrine, a pyrrolizidine alkaloid from Cremastra appendiculata” (J Nat Prod, 2005).
pIC50: −log10 of the molar value.

Assays:
[1] = target: T1, Muscarinic acetylcholine receptor M1 (Homo sapiens, UniProt P11229); assay: Displacement of [3H]NMS from human cloned muscarinic M1 receptor expressed in insect Sf9 cells
T1 sequence (P11229 whole entry): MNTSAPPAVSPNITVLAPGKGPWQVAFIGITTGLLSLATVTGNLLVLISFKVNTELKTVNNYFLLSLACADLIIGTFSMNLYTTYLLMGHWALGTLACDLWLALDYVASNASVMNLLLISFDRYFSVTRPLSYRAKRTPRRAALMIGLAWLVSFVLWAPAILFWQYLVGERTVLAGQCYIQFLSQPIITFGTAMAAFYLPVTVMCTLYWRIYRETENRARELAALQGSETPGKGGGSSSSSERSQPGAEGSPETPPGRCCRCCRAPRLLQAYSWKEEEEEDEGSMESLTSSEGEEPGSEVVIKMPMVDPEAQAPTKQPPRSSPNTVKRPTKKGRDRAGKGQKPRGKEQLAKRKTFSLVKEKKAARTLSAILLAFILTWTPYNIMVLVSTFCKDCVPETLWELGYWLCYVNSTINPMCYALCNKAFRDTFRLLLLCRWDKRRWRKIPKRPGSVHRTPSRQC

[2] = target: T2, Muscarinic acetylcholine receptor M4 (Homo sapiens, UniProt P08173); assay: Displacement of [3H]NMS from human cloned muscarinic M4 receptor expressed in insect Sf9 cells
T2 sequence (P08173 whole entry): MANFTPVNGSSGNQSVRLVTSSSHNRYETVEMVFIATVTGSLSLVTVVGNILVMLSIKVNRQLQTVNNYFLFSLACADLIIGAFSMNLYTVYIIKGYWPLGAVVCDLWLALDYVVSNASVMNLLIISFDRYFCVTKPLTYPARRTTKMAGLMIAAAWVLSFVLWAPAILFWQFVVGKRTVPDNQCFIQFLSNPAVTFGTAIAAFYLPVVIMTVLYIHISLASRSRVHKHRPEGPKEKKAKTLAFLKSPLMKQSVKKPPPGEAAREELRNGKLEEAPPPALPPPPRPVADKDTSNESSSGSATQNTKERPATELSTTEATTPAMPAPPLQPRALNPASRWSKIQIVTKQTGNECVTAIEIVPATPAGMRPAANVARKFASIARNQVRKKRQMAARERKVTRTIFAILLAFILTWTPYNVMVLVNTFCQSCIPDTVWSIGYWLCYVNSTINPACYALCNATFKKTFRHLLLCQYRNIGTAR

[3] = target: Muscarinic acetylcholine receptor M3 (Homo sapiens, UniProt P20309); assay: Displacement of [3H]NMS from human cloned muscarinic M3 receptor expressed in insect Sf9 cells
[4] = target: T3, Muscarinic acetylcholine receptor M5 (Homo sapiens, UniProt P08912); assay: Displacement of [3H]NMS from human cloned muscarinic M5 receptor expressed in insect Sf9 cells
T3 sequence (P08912 whole entry): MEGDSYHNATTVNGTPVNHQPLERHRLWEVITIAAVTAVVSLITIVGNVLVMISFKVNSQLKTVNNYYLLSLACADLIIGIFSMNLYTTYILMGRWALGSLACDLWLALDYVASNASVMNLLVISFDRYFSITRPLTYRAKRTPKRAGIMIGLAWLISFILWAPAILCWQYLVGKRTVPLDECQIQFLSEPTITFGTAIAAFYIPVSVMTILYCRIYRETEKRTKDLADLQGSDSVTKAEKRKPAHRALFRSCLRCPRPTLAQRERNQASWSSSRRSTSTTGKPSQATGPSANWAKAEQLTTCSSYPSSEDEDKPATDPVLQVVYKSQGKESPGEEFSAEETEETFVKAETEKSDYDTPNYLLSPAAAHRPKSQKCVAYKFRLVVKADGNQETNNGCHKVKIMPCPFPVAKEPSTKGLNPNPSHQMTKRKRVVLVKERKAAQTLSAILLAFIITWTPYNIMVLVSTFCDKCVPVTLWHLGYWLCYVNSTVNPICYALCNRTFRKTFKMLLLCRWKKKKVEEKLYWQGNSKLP

[5] = target: T4, Muscarinic acetylcholine receptor M2 (Homo sapiens, UniProt P08172); assay: Displacement of [3H]NMS from human cloned muscarinic M2 receptor expressed in insect Sf9 cells
T4 sequence (P08172 whole entry): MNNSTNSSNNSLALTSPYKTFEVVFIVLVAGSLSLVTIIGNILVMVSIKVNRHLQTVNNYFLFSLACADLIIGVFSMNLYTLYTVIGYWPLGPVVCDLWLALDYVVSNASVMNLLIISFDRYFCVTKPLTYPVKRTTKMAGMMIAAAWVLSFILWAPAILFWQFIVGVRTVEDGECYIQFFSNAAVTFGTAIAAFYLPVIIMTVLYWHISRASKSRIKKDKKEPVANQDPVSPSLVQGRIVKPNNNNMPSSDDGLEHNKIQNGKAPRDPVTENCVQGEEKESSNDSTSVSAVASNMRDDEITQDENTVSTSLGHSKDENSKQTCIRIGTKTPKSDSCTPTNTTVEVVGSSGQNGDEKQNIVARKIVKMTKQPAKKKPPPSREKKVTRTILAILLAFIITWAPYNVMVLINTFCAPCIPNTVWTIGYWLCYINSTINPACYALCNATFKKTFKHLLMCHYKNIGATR

Sequence of Muscarinic acetylcholine receptor M3 (P20309 whole entry): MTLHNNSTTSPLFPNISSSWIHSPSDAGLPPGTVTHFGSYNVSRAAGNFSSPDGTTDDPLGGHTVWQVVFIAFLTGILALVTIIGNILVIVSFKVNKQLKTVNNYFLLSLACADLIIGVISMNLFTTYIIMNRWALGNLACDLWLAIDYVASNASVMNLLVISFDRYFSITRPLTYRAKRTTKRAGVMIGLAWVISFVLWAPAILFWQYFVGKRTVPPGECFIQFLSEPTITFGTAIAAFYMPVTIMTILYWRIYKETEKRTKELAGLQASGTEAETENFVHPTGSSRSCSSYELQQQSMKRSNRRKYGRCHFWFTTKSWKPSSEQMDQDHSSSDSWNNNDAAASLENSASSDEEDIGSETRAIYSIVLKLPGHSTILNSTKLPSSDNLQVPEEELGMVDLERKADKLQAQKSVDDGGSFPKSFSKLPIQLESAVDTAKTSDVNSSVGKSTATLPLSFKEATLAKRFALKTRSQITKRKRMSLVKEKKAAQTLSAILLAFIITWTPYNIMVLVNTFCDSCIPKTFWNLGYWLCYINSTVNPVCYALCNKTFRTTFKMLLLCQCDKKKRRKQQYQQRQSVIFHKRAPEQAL

With CC[C@@H](C)[C@@H](O)C(=O)OC[C@H]1CCN2CCC[C@@H]12 [CREMASTRINE] as the molecule, how does the pIC50 [1] read?
Its pIC50 is 6.30.

And the pIC50 [2]?
The pIC50 was 6.30.

And the pIC50 [3]?
Its pIC50 is 6.90.

And the pIC50 [4]?
The pIC50 was 5.91.

What about the pIC50 [5] of the same molecule?
Its pIC50 is < 5.26.
